In ChEMBL document CHEMBL3885861, “Open TG-GATES”:

Species: Rattus norvegicus
Assay: Open TG-GATES - Regimen: Daily Repeat
Type: toxicity, organism-based, Sprague-Dawley
Parameters: regimen Daily Repeat, gender Male, age 6 weeks
Conditions: in vivo, po, 0 mg/kg, route gavage, dose level Control; for APTT / Bas / Eos / Fbg / Hb / Ht / Lym / MCH / MCHC / MCV / Mono / Neu / PT / Plat / RBC / Ret / WBC: tissue Blood; for KIDNEY_L / KIDNEY_R / KIDNEY_TOTAL: tissue Kidney; for LIVER: tissue Liver; for A/G / ALP / ALT / AST / BUN / CRE / Ca / Cl / DBIL / GLC / IP / K / LDH / Na / PL / RALB / TBIL / TC / TG / TP / gamma-GTP: tissue Plasma

In the case of CCCNC(=O)NS(=O)(=O)c1ccc(Cl)cc1 [CHLORPROPAMIDE], the TERMINAL_BW (72 h, time 3 day) is reported as 215.2 g, the APTT (72 h, time 3 day) is reported as 17.7 s and the Bas (72 h, time 3 day) is reported as 0.2%. For the same molecule, the Eos (72 h, time 3 day) was 1%, the Fbg (72 h, time 3 day) was 289.2 mg/dL and the Hb (72 h, time 3 day) was 13.2 g/dL. For the same molecule, the Ht (72 h, time 3 day) was 40.3%, the Lym (72 h, time 3 day) was 78% and the MCH (72 h, time 3 day) was 21.8 pg. For the same molecule, the MCHC (72 h, time 3 day) was 32.8%, the MCV (72 h, time 3 day) was 66.6 fL and the Mono (72 h, time 3 day) was 4%. For the same molecule, the Neu (72 h, time 3 day) was 16%, the PT (72 h, time 3 day) was 15.4 s and the Plat (72 h, time 3 day) was 120.9 x10_4/uL. The RBC (72 h, time 3 day) was 605.6 x10_4/ul, the Ret (72 h, time 3 day) was 7.5% and the WBC (72 h, time 3 day) was 84 x10_2/uL. It also gave a KIDNEY_L (72 h, time 3 day) of 0.9 g, a KIDNEY_R (72 h, time 3 day) of 0.9 g and a KIDNEY_TOTAL (72 h, time 3 day) of 1.9 g. The LIVER (72 h, time 3 day) was 10.4 g, the A/G (72 h, time 3 day) was 0.9 and the ALP (72 h, time 3 day) was 1591.4 IU/L. It also gave an ALT (72 h, time 3 day) of 48.2 IU/L, an AST (72 h, time 3 day) of 71.6 IU/L and a BUN (72 h, time 3 day) of 16.8 mg/dL. It also gave a CRE (72 h, time 3 day) of 0.2 mg/dL, a Ca (72 h, time 3 day) of 10.8 mg/dL and a Cl (72 h, time 3 day) of 105 meq/L. For the same molecule, the DBIL (72 h, time 3 day) was 0.01 mg/dL, the GLC (72 h, time 3 day) was 184 mg/dL and the IP (72 h, time 3 day) was 7.3 mg/dL. For the same molecule, the K (72 h, time 3 day) was 4 meq/L, the LDH (72 h, time 3 day) was 95.2 IU/L and the Na (72 h, time 3 day) was 142.2 meq/L. For the same molecule, the PL (72 h, time 3 day) was 154.6 mg/dL, the RALB (72 h, time 3 day) was 2.7 g/dL and the TBIL (72 h, time 3 day) was 0.034 mg/dL. The TC (72 h, time 3 day) was 80.4 mg/dL, the TG (72 h, time 3 day) was 107.2 mg/dL and the TP (72 h, time 3 day) was 5.8 g/dL. For the same molecule, the gamma-GTP (72 h, time 3 day) was 1 IU/L, the TERMINAL_BW ([…], time 7 day) was 251.8 g and the TERMINAL_BW ([…], time 14 day) was 307.1 g. For the same molecule, the TERMINAL_BW ([…], time 28 day) was 390.8 g, the APTT ([…], time 7 day) was 17.6 s and the Bas ([…], time 7 day) was 0.2%. It also gave an Eos ([…], time 7 day) of 1%, a Fbg ([…], time 7 day) of 294 mg/dL and a Hb ([…], time 7 day) of 13.7 g/dL. The Ht ([…], time 7 day) was 40.9%, the Lym ([…], time 7 day) was 76.2% and the MCH ([…], time 7 day) was 21.6 pg. For the same molecule, the MCHC ([…], time 7 day) was 33.4%, the MCV ([…], time 7 day) was 64.7 fL and the Mono ([…], time 7 day) was 2.6%. The Neu ([…], time 7 day) was 18.8%, the PT ([…], time 7 day) was 15.5 s and the Plat ([…], time 7 day) was 124.5 x10_4/uL. It also gave an RBC ([…], time 7 day) of 632 x10_4/ul, a Ret ([…], time 7 day) of 6.4% and a WBC ([…], time 7 day) of 98.4 x10_2/uL. It also gave an APTT ([…], time 14 day) of 18.5 s, a Bas ([…], time 14 day) of 0.2% and an Eos ([…], time 14 day) of 1%. The Fbg ([…], time 14 day) was 274 mg/dL, the Hb ([…], time 14 day) was 14.5 g/dL and the Ht ([…], time 14 day) was 42.8%. For the same molecule, the Lym ([…], time 14 day) was 78.4%, the MCH ([…], time 14 day) was 20.6 pg and the MCHC ([…], time 14 day) was 33.8%. The MCV ([…], time 14 day) was 60.8 fL, the Mono ([…], time 14 day) was 2.4% and the Neu ([…], time 14 day) was 17.4%. It also gave a PT ([…], time 14 day) of 15.2 s, a Plat ([…], time 14 day) of 122.4 x10_4/uL and an RBC ([…], time 14 day) of 703.6 x10_4/ul. It also gave a Ret ([…], time 14 day) of 4.5%, a WBC ([…], time 14 day) of 115.5 x10_2/uL and an APTT ([…], time 28 day) of 20.6 s. It also gave a Bas ([…], time 28 day) of 0.2%, an Eos ([…], time 28 day) of 1.2% and a Fbg ([…], time 28 day) of 259.6 mg/dL. The Hb ([…], time 28 day) was 14.9 g/dL, the Ht ([…], time 28 day) was 45.3% and the Lym ([…], time 28 day) was 78.8%. It also gave an MCH ([…], time 28 day) of 19 pg, an MCHC ([…], time 28 day) of 32.9% and an MCV ([…], time 28 day) of 57.5 fL. The Mono ([…], time 28 day) was 2%, the Neu ([…], time 28 day) was 17% and the PT ([…], time 28 day) was 16.1 s. For the same molecule, the Plat ([…], time 28 day) was 94.8 x10_4/uL, the RBC ([…], time 28 day) was 787.4 x10_4/ul and the Ret ([…], time 28 day) was 2.2%. It also gave a WBC ([…], time 28 day) of 103.1 x10_2/uL, a KIDNEY_L ([…], time 7 day) of 1.1 g and a KIDNEY_R ([…], time 7 day) of 1.1 g. It also gave a KIDNEY_TOTAL ([…], time 7 day) of 2.2 g, a KIDNEY_L ([…], time 14 day) of 1.2 g and a KIDNEY_R ([…], time 14 day) of 1.2 g. The KIDNEY_TOTAL ([…], time 14 day) was 2.4 g, the KIDNEY_L ([…], time 28 day) was 1.4 g and the KIDNEY_R ([…], time 28 day) was 1.4 g. It also gave a KIDNEY_TOTAL ([…], time 28 day) of 2.8 g, an LIVER ([…], time 7 day) of 11.6 g and an LIVER ([…], time 14 day) of 13.6 g. For the same molecule, the LIVER ([…], time 28 day) was 14.6 g, the A/G ([…], time 7 day) was 0.8 and the ALP ([…], time 7 day) was 1869.6 IU/L. For the same molecule, the ALT ([…], time 7 day) was 43.2 IU/L, the AST ([…], time 7 day) was 69.4 IU/L and the BUN ([…], time 7 day) was 15.4 mg/dL. The CRE ([…], time 7 day) was 0.2 mg/dL, the Ca ([…], time 7 day) was 10.9 mg/dL and the Cl ([…], time 7 day) was 106 meq/L. For the same molecule, the DBIL ([…], time 7 day) was 0.014 mg/dL, the GLC ([…], time 7 day) was 185.6 mg/dL and the IP ([…], time 7 day) was 6.7 mg/dL. For the same molecule, the K ([…], time 7 day) was 4.2 meq/L, the LDH ([…], time 7 day) was 97.4 IU/L and the Na ([…], time 7 day) was 143 meq/L. The PL ([…], time 7 day) was 154.2 mg/dL, the RALB ([…], time 7 day) was 2.7 g/dL and the TBIL ([…], time 7 day) was 0.036 mg/dL. It also gave a TC ([…], time 7 day) of 82 mg/dL, a TG ([…], time 7 day) of 105.2 mg/dL and a TP ([…], time 7 day) of 5.8 g/dL. For the same molecule, the gamma-GTP ([…], time 7 day) was 1.2 IU/L, the A/G ([…], time 14 day) was 0.8 and the ALP ([…], time 14 day) was 1479.6 IU/L. The ALT ([…], time 14 day) was 44.6 IU/L, the AST ([…], time 14 day) was 68.6 IU/L and the BUN ([…], time 14 day) was 18.4 mg/dL. The CRE ([…], time 14 day) was 0.2 mg/dL, the Ca ([…], time 14 day) was 10.7 mg/dL and the Cl ([…], time 14 day) was 104.2 meq/L. For the same molecule, the DBIL ([…], time 14 day) was 0.012 mg/dL, the GLC ([…], time 14 day) was 194.6 mg/dL and the IP ([…], time 14 day) was 7.3 mg/dL. The K ([…], time 14 day) was 4.1 meq/L, the LDH ([…], time 14 day) was 120 IU/L and the Na ([…], time 14 day) was 143.4 meq/L. It also gave a PL ([…], time 14 day) of 164 mg/dL, an RALB ([…], time 14 day) of 2.8 g/dL and a TBIL ([…], time 14 day) of 0.032 mg/dL. For the same molecule, the TC ([…], time 14 day) was 77.8 mg/dL, the TG ([…], time 14 day) was 158.4 mg/dL and the TP ([…], time 14 day) was 6.1 g/dL. For the same molecule, the gamma-GTP ([…], time 14 day) was 1 IU/L, the A/G ([…], time 28 day) was 0.8 and the ALP ([…], time 28 day) was 1207 IU/L. For the same molecule, the ALT ([…], time 28 day) was 40.2 IU/L, the AST ([…], time 28 day) was 66.8 IU/L and the BUN ([…], time 28 day) was 16.2 mg/dL. For the same molecule, the CRE ([…], time 28 day) was 0.2 mg/dL, the Ca ([…], time 28 day) was 10.6 mg/dL and the Cl ([…], time 28 day) was 105.6 meq/L. It also gave a DBIL ([…], time 28 day) of 0.01 mg/dL, a GLC ([…], time 28 day) of 188.8 mg/dL and an IP ([…], time 28 day) of 6.5 mg/dL. The K ([…], time 28 day) was 3.8 meq/L, the LDH ([…], time 28 day) was 88.4 IU/L and the Na ([…], time 28 day) was 144 meq/L. For the same molecule, the PL ([…], time 28 day) was 137.6 mg/dL, the RALB ([…], time 28 day) was 2.7 g/dL and the TBIL ([…], time 28 day) was 0.03 mg/dL. It also gave a TC ([…], time 28 day) of 65.8 mg/dL, a TG ([…], time 28 day) of 122.6 mg/dL and a TP ([…], time 28 day) of 6.1 g/dL. The gamma-GTP ([…], time 28 day) was 1 IU/L.
